{
  "source": "patent US20060094013A1",
  "about": "“Salt-inducible kinases 2 and use thereof” (priority 2002, published 2006)",
  "key": {"mouse SIK2": {"biological_target": "T1, mouse SIK2 (Mus musculus, UniProt Q8CFH6)", "T1 construct": "the full-length cDNA in the protein translation region of SIK2 was amplified by the RT-PCR method; made in house; host or cells: COS-7", "experiment": "Protein-phosphorylating activity of purified GST-mSIK2 (auto-phosphorylation and GST-Syntide 2 phosphorylation, 32P, SDS-PAGE)", "assay_type": "biochemical", "method": "The obtained GST-mSIK2 was mixed with 1 μl of GST-Syntide 2 (Lin et al., as describe above) and [^32P]-[…] (37 kBq; manufactured by ICN) in the presence of a 50 mM Tris-HCl buffer solution (pH 8.0) and 10 mM MnCl2 (20 μl in total). The mixture was allowed to react at 30° C. for 1 hour. The reaction was then terminated by adding 10 μl of an SDS-sample buffer and heating at 100° C. for 5 minutes. 10 μl of the reacted sample was separated using 15% SDS-PAGE, and the SDS-PAGE gel was then dried. The intake of ^32P was detected by exposing it to light for 30 minutes, using an X-ray film (MS-film; manufactured by Kodac). […] For comparison purpose, GST-rat SIK1 and GST-rat SIK1 (K56M) were subjected to the same experiment. Consequently, the same results were obtained.\nA GST-mSIK2 protein that was allowed to express in COS-7 cells and then purified was mixed with DMSO solutions containing 5% DMSO and 5% each of 1, 10, 100 nM staurosporine (Sigma) ina reaction system in the test tube used in Example 3. Thereafter, phosphorylating activity was detected by the SDS-PAGE method, so as to evaluate the inhibition of enzyme activity of mouse SIK2 by staurosporine. […] The auto-phosphorylating activity and GST-Syntide 2-phosphorylating activity of GST-mSIK2 were approximately 30% inhibited even by the single use of DMSO. […] It was inhibited by 1 nM staurosporine until the residual activity became approximately 20%. By 10 nM and 100 nM staurosporines, it was almost 100% inhibited."}, "SIK [1]": {"test_system": "SIK", "experiment": "Immunostaining of dexamethasone-induced SIK in 3T3-L1 cells with antibodies specific for the phosphorylation state", "assay_type": "cell-based", "method": "3T3-L1 cells were inoculated on 96-well plates, and the cells were cultured until they became confluent. The medium placed in such a plate was DMEM/10% FCS. The culture was carried out at 37° C. in 5% CO2. Thereafter, dexamethasone was added to each of the plates, thereby resulting in a concentration of dexamethasone of 1 μM, so that SIK was induced. After 1 hour had passed after the induction, an SIK inhibitor, staurosporine, was added to the plates, thereby resulting in concentrations of 10, 100, and 1,000 nM. Thereafter, the culture was further carried out for 1 hour. […] Subsequently, the cells were added to PBS containing 4% paraformaldehyde, and the mixture was then left at room temperature for 15 minutes, so that the cells were immobilized. Thereafter, the cells were washed with PBS 4 times, and they were then allowed to react with a blocking solution obtained by dissolving 1% skimmed milk in TBST (TBS containing 0.1% Tween 20). Subsequently, 100 μl of antiserum (500 times diluted) containing an antibody binding to SIK1 wherein serine at position 577 is phosphorylated, an antibody binding to SIK1 wherein threonine at position 182 and serine at position 186 are phosphorylated, an anti-SIK antibody, or an antibody binding to SIK1 wherein serine at position 577 is not phosphorylated, was added to the same above blocking solution. The obtained mixture was reacted overnight. After completion of the reaction overnight, an unreacted antibody portion was eliminated by washing with PBS 4 times. A solution obtained by 1,000 times diluting an HRP-labeled anti-rabbit IgG secondary antibody was added to a reaction solution obtained by dissolving 1% skimmed milk in TBS, and the mixture was then reacted at room temperature for 2 hours. Thereafter, the resultant product was washed with PBS 4 times. The antigen-antibody reaction was visualized using Konica Immuno Stain HRP reagent (manufactured by Konica)."}, "Gal-CREB (full-length)": {"test_system": "Gal-CREB (full-length)", "experiment": "Gal4-CREB (full-length) luciferase reporter assay", "assay_type": "cell-based", "details": "50 ng/ml", "method": "(§1) In addition, CREB was introduced into the N-terminal side of the Gal4 protein of budding yeast (Gal4 DNA binding domain; Gal4DB). Using a plasmid wherein a reporter gene (fire fly luciferase) was introduced downstream of a promoter having a sequence consisting of 5 consecutive Gal4-binding sequences, the ability of DB to transcribe CREB without the medium of CRE was analyzed. In the case of a Gal-CREB (full-length) system, since it has a bZIP domain, the transcription was inhibited by SIK2 and TNFα (refer to FIG. 9B)."}, "CRE": {"test_system": "CRE", "experiment": "CRE luciferase reporter assay in precursor fat cells 3T3-L1", "assay_type": "cell-based", "details": "50 ng/ml; SIK2 not highly expressed", "method": "For the purpose of detecting the CRE transcription-suppressing activity of SIK2, using Lipofectoamin 200 reagent (2 μl; manufactured by Invitrogen), 200 ng each of pTarget-SIK2 and pTarget-SIK2 (K49M), together with an expression vector (pTAL-CRE; 200 ng; manufactured by Clontech) in which a luciferase gene is located under the control of CRE, were introduced into precursor fat cells 3T3-L1. Moreover, mSIK2 (S587A) having a destroyed PKA phosphorylated portion, which was predicted to exist in mouse SIK2 domain 3 from the findings regarding rat SIK1, was introduced therein, using oligo DNA represented by SEQ ID NO: 16.\nIn the thus produced mSIK2 (S587A), serine at position 587 was substituted with alanine with respect to the full-length SIK2. For correction of introduction efficiency, a vector (pRL-SC40; 30 ng; manufactured by Promega) that allows luciferase derived from Renilla to express under an SV40 promoter was co-introduced therein. 16 hours later, the cells were stimulated with forskolin (50 μM) for 6 hours, so as to activate CRE. Thereafter, the cells were recovered, and the expression level of a reporter gene was analyzed using Dual Luciferase Assay kit (manufactured by Promega).\nThe corrected pTAL-CRE-derived activity was divided by the activity derived from pTAL, so as to obtain a specific activity derived from CRE. […]"}, "Gal4-CREB(-bZIP)": {"test_system": "Gal4-CREB(-bZIP)", "experiment": "Gal4-CREB(-bZIP) luciferase reporter assay", "assay_type": "cell-based", "details": "50 ng/ml", "method": "as §1"}, "SIK2 gene": {"test_system": "SIK2 gene", "experiment": "SIK2 mRNA level after incubation with hormones (Northern blot)", "assay_type": "cell-based", "details": "used singly, 2 hours; insulin 1 μg/ml, cAMP 1 mM, dexamethasone 1 μM", "procedure": "The SIK2 gene was incubated with each of these hormones, and with the mixture consisting of the 3 types of hormones, for 2 hours. Thereafter, the mRNA level of SIK2 was measured. […] The measurement was carried out by the Northern blot analysis using cDNA probes."}, "SIK [2]": {"biological_target": "T2, SIK (Mus musculus, UniProt Q8CFH6)", "T2 construct": "the full-length cDNA in the protein translation region of SIK2 was amplified by the RT-PCR method; made in house; host or cells: COS-7", "experiment": "Phosphorylating activity of GST-SIK2 on Syntide 2 in the presence of a p300 peptide (method of Lin et al.)", "assay_type": "biochemical", "details": "GST-SIK2 expressed in COS-7 cells", "method": "It was studied whether or not a peptide p300 is phosphorylated by SIK when serine at position 89 in p300 is substituted with alanine (S89A). Moreover, it was also studied whether or not the peptide p300 [84-93 (S89A)] can inhibit the phosphorylating activity of SIK. When the activity of SIK2 was measured by the method of Lin et al., a DMSO solution containing 5% DMSO (dimethyl sulfoxide) and staurosporine was added. SIK2 was allowed to express in the form of a GST binding form in COS-7 cells, and it was then purified using GST-Mirospin kit from Amersham Pharmacia.\nThe left lane and the central lane show the results regarding a synthetic substrate (Syntide 2) phosphorylated by SIK."}, "[3]": {"test_system": "CRE-suppressing activity of SIK", "experiment": "CRE activity in cells with PKA and SIK, peptide bound to the GFPC carrier", "assay_type": "cell-based", "details": "peptide bound to C-terminus of GFP; PKA and SIK present", "source_text": "GFPC is a C-terminus binding-type green fluorescent protein. GFPC is used as a peptide carrier, wherein a peptide of interest binds to the C-terminus of GFP. […] The grey one is CRE activity obtained when both PKA and SIK exist."}, "[4]": {"details": "10, 100, 1,000 nM staurosporine"}},
  "data": [
    {"molecule": "C[S+](C)[O-]", "note": "[DMSO, dimethyl sulfoxide]", "values": [
      {"measurement": "inhibition of auto-phosphorylating activity and GST-Syntide 2-phosphorylating activity of GST-mSIK2", "setting": "mouse SIK2; single use of DMSO (5% DMSO)", "result": "approximately 30%"}
    ]},
    {"molecule": "CN[C@@H]1C[C@H]2O[C@@](C)([C@@H]1OC)n1c3ccccc3c3c4c(c5c6ccccc6n2c5c31)C(=O)NC4", "note": "[staurosporine]", "values": [
      {"measurement": "residual phosphorylating activity of SIK2", "setting": "mouse SIK2; 1 nM staurosporine in 5% DMSO solution", "result": "approximately 20%"},
      {"measurement": "inhibition at 0.01 µM", "setting": "mouse SIK2; 10 nM staurosporine", "result": "~100", "unit": "%"},
      {"measurement": "inhibition at 0.1 µM", "setting": "mouse SIK2; 100 nM staurosporine", "result": "~100", "unit": "%"},
      {"measurement": "concentration dependence of inhibition of phosphorylating activity of SIK2", "setting": "mouse SIK2; 1, 10, 100 nM", "result": "concentration-dependently inhibited"},
      {"measurement": "reaction of anti-phosphorylation Ser577 antibody with SIK", "setting": "SIK [1]; 10 nM staurosporine, 1 hour", "result": "significantly decreased"},
      {"measurement": "reaction of anti-phosphorylation Thr182-Ser186 antibody with SIK", "setting": "SIK [1]; 10 nM staurosporine, 1 hour", "result": "significantly decreased"},
      {"measurement": "reaction of SIK with anti-SIK1 antibody", "setting": "SIK [1]; [4]", "result": "not significantly decreased"},
      {"measurement": "reactivity of antibody binding to SIK1 wherein serine at position 577 is not phosphorylated", "setting": "SIK [1]; [4]", "result": "increased depending on the concentration of staurosporine"}
    ]},
    {"molecule": "TNFα", "values": [
      {"measurement": "effect on transcription in Gal-CREB (full-length) system", "setting": "Gal-CREB (full-length)", "result": "inhibited"},
      {"measurement": "effect on activation of CRE due to PKA", "setting": "CRE", "result": "sufficiently suppressed the activation of CRE due to PKA"},
      {"measurement": "effect on transcription in Gal4-CREB(-bZIP) system", "setting": "Gal4-CREB(-bZIP)", "result": "suppressed"}
    ]},
    {"molecule": "insulin", "values": [
      {"measurement": "effect on transcription of the SIK2 gene (mRNA level)", "setting": "SIK2 gene", "result": "promoted the transcription of the SIK2 gene"}
    ]},
    {"molecule": "p300 [84-93 (S89A)]: peptide p300 residues 84-93 with serine at position 89 substituted with alanine; bound to GFPC carrier in the cell test (LLRSGASPNL)", "values": [
      {"measurement": "effect on enzyme activity of SIK (Syntide 2 phosphorylation)", "setting": "SIK [2]", "result": "inhibits the enzyme activity of SIK"},
      {"measurement": "effect on CRE-suppressing activity of SIK in cells", "setting": "[3]", "result": "inhibits the CRE-suppressing activity of SIK in cells"}
    ]}
  ]
}
